For experiment [1], the target named is mutated isocitrate dehydrogenase (mIDH) protein overexpressed in LN229 R132H cells (Homo sapiens (Human), UniProt O75874, R132H). Kind of experiment: Mutant IDH1 cellular assay (2-HG in medium of LN229 R132H cells). The experiment is classed as cell-based. As to conditions: 24 hours, fluorescence readout. As for the experimental part: Mutant IDH1 Cellular Assay
Levels of (2R)-2-hydroxyglutarate (2HG) were measured in medium of a cell line with overexpression of mutated isocitrate dehydrogenase (mIDH) protein. mIDH catalyzes the NADPH-dependent reduction of alpha-ketoglutarate to 2-HG. Cells (LN229 R132H, Mohrenz et al., Apoptosis (2013) 18:1416-1425) were grown in DMEM containing 10% FCS. They were harvested by trypsin and seeded into 96-well plates. Cells were incubated overnight at 37° C. in 5% CO2. The next day test compounds were added to each cell well. The final concentration of DMSO was 0.1% and DMSO controls were included. The plates were then placed in an incubator for 24 hours.
2-HG was measured according to Balss et al. (Acta Neuropathol (2012) 124: 883-891). Briefly, HClO4 was added to each well and the plates were centrifuged. Aliquots are removed and incubated with hydroxyglutarate dehydrogenase (HGDH), diaphorase, NAD+, and resazurin. The conversion of resazurin to resorufin was detected by fluorescence spectroscopy at Ex 540 nm Em 600 nm. The increase in fluorescence is proportional to 2-HG production. IC50 values are determined by interpolation from plots of relative fluorescence vs inhibitor concentration.

Experiment [2] deals with IDH1 R132H enzyme (Homo sapiens (Human), UniProt O75874, R132H). Kind of experiment: Mutant IDH1 R132H biochemical assay. As to conditions: NADPH consumption, luminescent readout; 1.5 nM enzyme, 250 μM α-KG, 1 μM NADPH, 30 minutes, 32° C.; test range 0.002-10 μM. As for the experimental part:
mIDH1 catalyzes the NADPH-dependent reduction of alpha-ketoglutarate (α-KG) to (2R)-2-hydroxyglutarate (2-HG). NADPH consumption was measured by luminescent readout.
The biochemical reactions were performed at 32° C. in 384-well plates using a reaction volume of 41 μl and the following assay buffer conditions: 50 mM Tris pH 7.5, 100 mM NaCl, 20 mM MgCl2, 0.05% BSA, 0.01% Brij, 1 μM NADPH, and 250 μM α-KG. […] Test compounds were used in a concentration range between 0.002 and 10 μM. The final DMSO concentration was 2.4%.
The reaction was incubated for 30 minutes, then 40 μl of detection mix (0.75 μg/ml Luciferase, 0.02 U/ml Oxidoreductase, 4 μg/ml FMN, 2 μl/ml Decanal/Ethanol, 50 mM Tris pH 7.5, 0.5% Glycerin, 0.01% Tween-20, 0.05% BSA) was added. Luminescence was measured on a luminescent reader (10 seconds measuring time, 1 second integration period, 30% sensitivity). The decrease in luminescence is proportional to mIDH1 activity. IC50 values are determined by interpolation from plots of relative luminescence versus inhibitor concentration.

SMILES strings stand for the structures.

Sequence of IDH1 R132H enzyme (O75874 whole entry R132H): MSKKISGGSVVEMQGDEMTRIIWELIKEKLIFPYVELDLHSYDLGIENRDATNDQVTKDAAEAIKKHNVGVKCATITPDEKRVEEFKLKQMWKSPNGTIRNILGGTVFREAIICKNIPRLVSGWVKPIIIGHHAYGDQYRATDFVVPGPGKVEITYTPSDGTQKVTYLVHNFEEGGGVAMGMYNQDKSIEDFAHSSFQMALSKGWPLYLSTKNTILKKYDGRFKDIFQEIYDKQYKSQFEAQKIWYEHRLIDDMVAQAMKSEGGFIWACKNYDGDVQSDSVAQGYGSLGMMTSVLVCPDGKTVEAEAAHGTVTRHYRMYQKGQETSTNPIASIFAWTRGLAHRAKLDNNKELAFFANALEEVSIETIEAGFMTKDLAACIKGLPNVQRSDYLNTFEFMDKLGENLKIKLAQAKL
Sequence of mutated isocitrate dehydrogenase (mIDH) protein overexpressed in LN229 R132H cells (O75874 whole entry R132H): as above

Consider `C[C@H]1C[C@@H](n2c(Nc3ccc(OC(F)(F)F)cc3)nc3cc(-c4cn[nH]c4)ccc32)CC(C)(C)C1` (stereo in doubt) [Example 2-4], for which the results for the IC50 in experiment [1] and in experiment [2] were 600 nM and 80 nM, respectively. As to `C[C@H]1C[C@@H](n2c(Nc3ccc(OC(F)(F)F)cc3)nc3cc(-c4cnn(C)c4)ccc32)CC(C)(C)C1` (stereo in doubt) [Example 2-13-1], the IC50 in experiment [2] was 240 nM. In experiment [2], `Cc1nnc(-c2ccc3c(c2)nc(Nc2ccc(OC(F)(F)F)cc2)n3C2CC(C)(C)CC(C)(C)C2)o1` [Example 2-25, 5-(5-Methyl-1,3,4-oxadiazol-2-yl)-1-(3,3,5,5-tetramethylcyclohexyl)-N-[4-(trifluoromethoxy)phenyl]-1H-benzimidazol-2-amine] registered an IC50 of 130 nM. In the case of `Cc1n[nH]c(C)c1-c1ccc2c(c1)nc(Nc1ccc(C(F)(F)F)cc1)n2[C@H]1C[C@@H](C)CC(C)(C)C1` (stereo in doubt) [Example 2-24-2], the IC50 in experiment [1] turned out to be 7000 nM; in experiment [2], 140 nM. The compound `Cc1cc(-c2ccc3c(c2)nc(Nc2ccc(OC(F)(F)F)cc2)n3[C@H]2C[C@@H](C)CC(C)(C)C2)cc(C)c1O` (racemic) [Example 2-34, (±) 2,6-dimethyl-4-(2-{[4-(trifluoromethoxy)phenyl]amino}-1-[(cis)-3,3,5-trimethylcyclohexyl]-1H-benzimidazol-5-yl)phenol] came in with an IC50 in experiment [2] of 180 nM. Same read-out and setting: as for `C[C@@H]1C[C@H](n2c(Nc3ccc(OC(F)(F)F)cc3)nc3cc(-c4cc(F)c(O)c(F)c4)ccc32)CC(C)(C)C1` (racemic) [Example 2-33, (±) 2,6-difluoro-4-(2-{[4-(trifluoromethoxy)phenyl]amino}-1-[(cis)-3,3,5-trimethylcyclohexyl]-1H-benzimidazol-5-yl)phenol], the figure is 670 nM; as for `C[C@@H]1C[C@H](n2c(Nc3ccc(OC(F)(F)F)cc3)nc3cc(-c4cnn(C)c4)ccc32)CC(C)(C)C1` (stereo in doubt) [Example 2-13-2], 1000 nM. For `Cc1noc(C)c1-c1ccc2c(c1)nc(Nc1ccc(OC(F)(F)F)cc1)n2[C@H]1C[C@@H](C)CC(C)(C)C1` (single isomer, unassigned) [Example 2-1-2, 5-(3,5-dimethyl-1,2-oxazol-4-yl)-N-[4-(trifluoromethoxy)phenyl]-1-[(cis)-3,3,5-trimethylcyclohexyl]-1H-benzimidazol-2-amine], 70 nM corresponded to half-maximal inhibition in experiment [2] (IC50). In the case of `C[C@H]1C[C@@H](n2c(Nc3ccc(SC(F)(F)F)cc3)nc3cc(-c4ccn[nH]4)ccc32)CC(C)(C)C1` (stereo in doubt) [Example 2-22], the half-inhibitory concentration (IC50) in experiment [1] was 2500 nM; in experiment [2], 770 nM.

In the case of `Cc1n[nH]c(C)c1-c1ccc2c(c1)nc(Nc1ccc(OC(F)(F)F)cc1)n2[C@@H]1C[C@H](C)CC(C)(C)C1` (stereo in doubt) [Example 2-5], the IC50 in experiment [1] turned out to be 4000 nM; in experiment [2], 90 nM. `COC(=O)c1ccc(-c2ccc3c(c2)nc(Nc2ccc(OC(F)(F)F)cc2)n3[C@H]2C[C@@H](C)CC(C)(C)C2)cc1` (racemic) [Example 2-18, (±) Methyl 4-(2-{[4-(trifluoromethoxy)phenyl]amino}-1-[(cis)-3,3,5-trimethylcyclohexyl]-1H-benzimidazol-5-yl)benzoate] came in with an IC50 in experiment [2] of 4000 nM. That is a single-digit micromolar value. In the case of `Cc1cc2c(cc1-c1c(C)n[nH]c1C)nc(Nc1ccc(OC(F)(F)F)cc1)n2C1CC(C)(C)CC(C)(C)C1` [Example 2-29, 5-(3,5-dimethyl-1H-pyrazol-4-yl)-6-methyl-1-(3,3,5,5-tetramethylcyclohexyl)-N-[4-(trifluoromethoxy)phenyl]-1H-benzimidazol-2-amine], the IC50 in experiment [1] came to 2700 nM; in experiment [2] it was 4000 nM. On the same counts, the results for `C[C@@H]1C[C@H](n2c(Nc3ccc(OC(F)(F)F)cc3)nc3cc(-c4cccc(C(=O)O)c4)ccc32)CC(C)(C)C1` (racemic) [Example 2-2, (±) 3-(2-{[4-(trifluoromethoxy)phenyl]amino}-1-[(cis)-3,3,5-trimethylcyclohexyl]-1H-benzimidazol-5-yl)benzoic acid] are 360 nM and 70 nM. Consider `Cc1cc2c(cc1C1OC(=O)NC1=O)nc(Nc1ccc(OC(F)(F)F)cc1)n2C1CC(C)(C)CC(C)(C)C1` (centres unmarked) [Example 2-36, 5-[6-methyl-1-(3,3,5,5-tetramethylcyclohexyl)-2-{[4-(trifluoromethoxy)phenyl]amino}-1H-benzimidazol-5-yl]-1,3-oxazolidine-2,4-dione], for which the IC50 in experiment [1] is 22 nM; in experiment [2], 14 nM.

`Cc1n[nH]c(C)c1-c1ccc2c(c1)nc(Nc1ccc(OC(F)(F)F)cc1)n2[C@@H]1C[C@H](C)CC(C)(C)C1` (stereo in doubt) [Example 2-5-1] displayed an IC50 in experiment [2] of 670 nM. Still for that read-out and setting: in the case of `C[C@H]1C[C@@H](n2c(Nc3ccc(OC(F)(F)F)cc3)nc3cc(-c4cn(C)nc4C(F)(F)F)ccc32)CC(C)(C)C1` (stereo in doubt) [Example 2-16-1] it was 7800 nM. The compound `C[C@H]1C[C@@H](n2c(Nc3ccc(OC(F)(F)F)cc3)nc3cc(-c4ccc(C(N)=O)cc4)ccc32)CC(C)(C)C1` (stereo in doubt) [Example 2-17] had an IC50 in experiment [2] of 440 nM. For `C[C@@H]1C[C@H](n2c(Nc3ccc(OC(F)(F)F)cc3)nc3cc(-c4ccc(C(=O)O)cc4)ccc32)CC(C)(C)C1` (racemic) [Example 2-3, (±) 4-(2-{[4-(trifluoromethoxy)phenyl]amino}-1-[(cis)-3,3,5-trimethylcyclohexyl]-1H-benzimidazol-5-yl)benzoic acid], in experiment [2], it took 460 nM to reach half-maximal inhibition (IC50). This IC50 and that of the compound before are within 1.5-fold of each other. Same read-out and setting: in the case of `COc1cc(-c2ccc3c(c2)nc(Nc2ccc(OC(F)(F)F)cc2)n3[C@@H]2C[C@H](C)CC(C)(C)C2)ccn1` (stereo in doubt) [Example 2-14] it was 1300 nM. With `C[C@H]1C[C@@H](n2c(Nc3ccc(OC(F)(F)F)cc3)nc3cc(-c4ccnn4C)ccc32)CC(C)(C)C1` (stereo in doubt) [Example 2-20], the IC50 in experiment [1] was 4000 nM. In other words, the single-digit micromolar range. In experiment [2], `Cc1cc(-c2ccc3c(c2)nc(Nc2ccc(OC(F)(F)F)cc2)n3[C@@H]2C[C@H](C)CC(C)(C)C2)n(C)n1` (stereo in doubt) [Example 2-12-1] displayed a half-maximal inhibitory concentration (IC50) of 4300 nM. On to `COC(=O)c1cccc(-c2ccc3c(c2)nc(Nc2ccc(OC(F)(F)F)cc2)n3[C@H]2C[C@@H](C)CC(C)(C)C2)c1` (racemic) [Example 2-15, (±) Methyl 3-(2-{[4-(trifluoromethoxy)phenyl]amino}-1-[(cis)-3,3,5-trimethylcyclohexyl]-1H-benzimidazol-5-yl)benzoate], for which, in experiment [2], the IC50 was 1500 nM. `Cc1cc(-c2ccc3c(c2)nc(Nc2ccc(OC(F)(F)F)cc2)n3[C@H]2C[C@@H](C)CC(C)(C)C2)n(C)n1` (stereo in doubt) [Example 2-12-2] displayed an IC50 in experiment [2] of 1600 nM. On the same count and under the same terms, as for `C[C@H]1C[C@@H](n2c(Nc3ccc(OC(F)(F)F)cc3)nc3cc(-c4cn(C)nc4C(F)(F)F)ccc32)CC(C)(C)C1` (stereo in doubt) [Example 2-16], the figure is 290 nM.

In the case of `CCOc1noc(C)c1-c1ccc2c(c1)nc(Nc1ccc(OC(F)(F)F)cc1)n2[C@H]1C[C@@H](C)CC(C)(C)C1` (racemic) [Example 2-35, (±) 5-(3-ethoxy-5-methyl-1,2-oxazol-4-yl)-N-[4-(trifluoromethoxy)phenyl]-1-[(cis)-3,3,5-trimethylcyclohexyl]-1H-benzimidazol-2-amine], in experiment [2], the IC50 worked out at 240 nM.

The compound `C[C@H]1C[C@H](n2c(Nc3ccc(OC(F)(F)F)cc3)nc3cc(-c4nnn[nH]4)ccc32)CC(C)(C)C1` (racemic) [Example 2-27, (±) 5-(1H-tetrazol-5-yl)-N-[4-(trifluoromethoxy)phenyl]-1-[(trans)-3,3,5-trimethylcyclohexyl]-1H-benzimidazol-2-amine] displayed an IC50 in experiment [2] of 1800 nM. Same read-out and setting: in the case of `C[C@@H]1C[C@H](n2c(Nc3ccc(OC(F)(F)F)cc3)nc3cc(-c4cn(C)nc4C(F)(F)F)ccc32)CC(C)(C)C1` (stereo in doubt) [Example 2-16-2] it was 780 nM. In experiment [2], `Cc1noc(C)c1-c1ccc2c(c1)nc(Nc1ccc(OC(F)(F)F)cc1)n2[C@H]1C[C@@H](C)CC(C)(C)C1` (single isomer, unassigned) [Example 2-1-1, 5-(3,5-dimethyl-1,2-oxazol-4-yl)-N-[4-(trifluoromethoxy)phenyl]-1-[(cis)-3,3,5-trimethylcyclohexyl]-1H-benzimidazol-2-amine] registered an IC50 of 240 nM.

For the origin of these results see patent US10137110B2, “1-cyclohexyl-2-phenylaminobenzimidazoles as mIDH1 inhibitors for the treatment of tumors” (Bayer Pharma Aktiengesellschaft, priority 2014, dated 2018).
